According to patent publication US6608003B2, “Herbicidal solutions comprising fatty acid ammonium salts and dicarboxylic acid diesters and methods of using the same” (Falcon Lab LLC, priority 2000, dated 2003):

Key:
[1] = Solubility of the diester in 40% aqueous ammonium pelargonate solution; type: physicochemical; conditions: for amount of ester that dissolves in 100 g of 40% ammonium pelargonate to give a clear composition: 22 deg, successive additions of 99% ester; for dissolved diester content of the clear aqueous ammonium pelargonate composition: by weight, 40% (saturated) ammonium pelargonate solution
Procedure: A 40% solution of ammonium pelargonate was prepared by slowly adding 33 g. of 28% ammonium hydroxide to a stirred mixture of 89.3 g. of nonanoic acid (commercial pelargonic acid from Cognis Corp.) and 124.3 g. of distilled water.
To 361 gm. (2.29 mole) of technical pelargonic acid was added slowly with stirring a solution of 139 gm. of 28% ammonium hydroxide (2.29 mole NH3) in 500 ml. of deionized water.
A 40% solution of ammonium pelargonate was prepared by slowly adding 33 g. of 28% ammonium hydroxide to a stirred mixture of 89.3 g. of nonanoic acid (commercial pelargonic acid from Cognis Corp.) and 124.3 g. of distilled water. […]

[2] = Solubility in water; type: physicochemical

COC(=O)CCCCCC(=O)OC [dimethyl pimelate, Dimethyl pimelate]
amount of ester that dissolves in 100 g of 40% ammonium pelargonate to give a clear composition [1]: 22.5 g
dissolved diester content of the clear aqueous ammonium pelargonate composition [1]: 17.9%
solubility in water (in words) [2]: insoluble in water

COC(=O)CCCCCCC(=O)OC [dimethyl suberate, Dimethyl suberate]
amount of ester that dissolves in 100 g of 40% ammonium pelargonate to give a clear composition [1]: 19.3 g
dissolved diester content of the clear aqueous ammonium pelargonate composition [1]: 16.2%
solubility in water (in words) [2]: insoluble in water
